Reference: patent US20120251495A1, “PTERIN BASED THERAPIES FOR INFLAMMATORY CONDITIONS” (priority 2008, published 2012)

Test system: MDA-MB-231 human breast tumor xenographs
Test: Antitumor efficacy in nude mice with MDA-MB-231 xenographs, 1st experiment
Assay type: in vivo, athymic nude (nu/nu) mice
Details: for Day 60 Rel Tum Vol: mean ± SEM
Protocol: The aims of the 1st experiment were to determine a dose-response curve for the (1:4 mol:mol) calcium pterin suspension, to compare the antitumor activity of this suspension to pterin alone (pterin control), and to test the effect of CaPterin mega-dosing at 100 mg/kg/day. Antitumor efficacy was evaluated in nude mice with MDA-MB-231 human tumor xenographs by Perry Scientific (San Diego, Calif.). In the 1st experiment, twenty-three athymic nude (nu/nu) female mice, ages 3-4 weeks, were purchased from Harlan Sprague Dawley, Inc. (Indianapolis, Ind.). 5×10^6 MDA-MB-231 cancer cells were injected subcutaneously into the right flank of each mouse. When tumors reached 3-5 mm in size, twenty mice were divided into four treatment/control groups of five mice each. The four treatment groups were: (1:4 mol:mol) calcium pterin (7 mg/kg/day); pterin (21 mg/kg/day); (1:4 mol:mol) calcium pterin (21 mg/kg/day); and sterile water control. Two mice with outlying tumor sizes or non-tumor takes were excluded shortly after treatment began: one from the pterin group and one from the control group. […] Only one outlier persisted >4 days, for 14 days. Also excluded from the metabolic analysis in the 1st experiment was one mouse from each of the four experimental groups mega-dosed by oral gavage with 100 mg/kg/day CaPterin for tip to 31 days to test for toxicity. All the other mice in the 1st experiment persisted ≧60 days without complications.
The control mice in the 1st experiment were treated with sterile water while the control mice in the 2nd experiment were untreated to evaluate the effect of mouse handling and gavaging upon tumor growth. Daily dosing was for 7 days per week. Animals were restrained but not anesthetized for oral dosing. Tumors were measured twice weekly with calipers and body weights taken twice weekly on the day of tumor measurements. Blood was collected from all animals via cardiac puncture at termination (after 70 to 98 days of treatment) and processed to EDTA plasma for analysis. Tumor size measurements for the control group in the 2nd experiment on days 4 and 7 were missed due to a technical oversight.
The MDA-MB-231 human breast tumor cell lines were supplied by SRI International (Menlo Park, Calif.) and propagated using standard in vitro cell expansion methods. Briefly, cells were grown in L-15 media from Gibco (Cat. No. 11415-064) supplemented with 2 mM L-Glutamine and 10% Fetal Bovine Serum (FBS). The cells were cultured in an incubator with 5% CO2, 37.5° C., and 80% humidity. Cells were harvested with 0.25% (w/v) Trypsin-0.03% (w/v) EDTA solution. Cells were prepared for injection by standard methods to appropriate concentrations. Animals were temporarily restrained but not anesthetized for the inoculation of the tumor cells. Animals were subcutaneously injected with the tumor cells in a 100-200 μl volume.
Each animal was individually tracked for tumor growth by external caliper measurements of protruding tumor. Primary tumor sizes were measured using calipers and an approximate tumor volume calculated using the formula 1/2 (a×b^2), where b was the smaller of two perpendicular diameters.
For each group, the mean and standard error of the mean (SEM) of the ratio V/Vo, Relative Tumor Volume (RTV), were plotted as a function of treatment time after inoculation. V0 was the tumor volume at Day 0, when treatment began.

(1:4 mol:mol) calcium pterin [CaPterin]
antitumor activity (tumor growth vs control) (7 mg/kg/day): non-significant | Day 60 Rel Tum Vol (7 mg/kg/day oral): 24.0 ± 9.0 | antitumor activity (tumor growth vs control) (21 mg/kg/day): significantly inhibits | Day 60 Rel Tum Vol (21 mg/kg/day oral): 7.9 ± 1.3 | T/C ratio (mean treatment tumor volume to mean control tumor volume) (21 mg/kg/day, after 60 days): 41% | Spearman rank order correlation rs, Day 60 Relative Tumor Volume versus dose (n=14, p=0.005): 0.70
